Experimental data taken from patent USRE48461E1, “Modulation of androgen receptor expression” (Ionis Pharmaceuticals, Inc., priority 2012, dated 2021).
Read-outs that look alike come from different tables or passages of the source. Oligonucleotides are written 5' to 3', each unit as a sugar letter and its base; * is a phosphorothioate linkage, no mark a phosphodiester; rarer units and linkages stand in square brackets, end groups in braces. Plain capitals give the bases only. k = constrained ethyl (cEt); d = 2'-deoxy (DNA)

What was measured:
[1] = test system: AR mRNA; test: Dose-dependent antisense inhibition of human AR in HuVEC cells (electroporation, qRT-PCR RTS3559, IC50); type: cell-based
Procedure, shortened: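 HuVEC cells dosed with antisense oligonucleotides by electroporation and treated approximately 16 hours. AR mRNA quantified by real-time qPCR with primer probe set RTS3559 and normalised to total RNA by RIBOGREEN; IC50 from dose-response.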

[2] = test system: AR mRNA; test: AR mRNA in LnCaP cells by free uptake (hAR_LTS00943); type: cell-based, human; details: 24 hrs
Description: Cells were plated at a concentration of 4,000 cells/well in 96-well plates. ISIS oligonucleotides, specified in Table 68, were added individually at 0.02 μM, 0.10 μM, 0.50 μM, 2.50 μM, or 10.00 μM. After an incubation period of 24 hrs, mRNA levels were measured using primer probe set hAR_LTS00943.

[3] = test system: C4-2B cells; test: C4-2B cell proliferation, ASO in combination with MDV3100 (Example 19); type: cell-based, human; details: Homo sapiens, PBS (no ASO) + MDV3100 1 μM, read-out: Percent inhibition of C4-2B cell proliferation
Description: C4-2B cells were plated at 1,500 cells per well. […] ISIS 347526 was included as a negative control. […] After a treatment period of 6 days, the proliferative capacity of the cancer cells was measured with CellTiter 96® AQueous One Solution Cell Proliferation kit (Promega), following the manufacturer's instructions. Results are presented in Table 46 as percent inhibition of proliferation, relative to non-treated cells. Treatment of the cells with ISIS 549372 or ISIS 549458 reduced proliferation of the cells more extensively than treatment with ISIS 554221.

549458 (kG*kT*kT*dG*dA*dT*dT*dT*dA*dA*dT*dG*dG*kT*kT*kG) [compound 549458]
percent inhibition of AR ([1]; 31.25 nM, HuVEC, ~16 h, Table 6): 15% | percent inhibition of AR ([1]; 31.25 nM, HuVEC, ~16 h, Table 8): 30% | percent inhibition of AR ([1]; 31.25 nM, HuVEC, ~16 h, Table 14): 0% | percent inhibition of AR ([1]; 46.9 nM, HuVEC, ~16 h, Table 15): 15% | percent inhibition of AR ([1]; 55.6 nM, HuVEC, ~16 h, Table 4): 48% | percent inhibition of AR ([1]; 62.5 nM, HuVEC, ~16 h, Table 6): 25% | percent inhibition of AR ([1]; 62.5 nM, HuVEC, ~16 h, Table 8): 36% | percent inhibition of AR ([1]; 62.5 nM, HuVEC, ~16 h, Table 10): 25% | percent inhibition of AR ([1]; 62.5 nM, HuVEC, ~16 h, Table 11): 16% | percent inhibition of AR ([1]; 62.5 nM, HuVEC, ~16 h, Table 12): 19% | percent inhibition of AR ([1]; 62.5 nM, HuVEC, ~16 h, Table 14): 19% | percent inhibition of AR ([1]; 125.0 nM, HuVEC, ~16 h, Table 6): 47% | percent inhibition of AR ([1]; 125.0 nM, HuVEC, ~16 h, Table 8): 54% | percent inhibition of AR ([1]; 125.0 nM, HuVEC, ~16 h, Table 10): 46% | percent inhibition of AR ([1]; 125.0 nM, HuVEC, ~16 h, Table 11): 22% | percent inhibition of AR ([1]; 125.0 nM, HuVEC, ~16 h, Table 12): 22% | percent inhibition of AR ([1]; 125.0 nM, HuVEC, ~16 h, Table 14): 40% | percent inhibition of AR ([1]; 166.7 nM, HuVEC, ~16 h, Table 4): 84% | percent inhibition of AR ([1]; 187.5 nM, HuVEC, ~16 h, Table 15): 50% | percent inhibition of AR ([1]; 500.0 nM, HuVEC, ~16 h, Table 4): 97% | percent inhibition of AR ([1]; 500.0 nM, HuVEC, ~16 h, Table 6): 88% | percent inhibition of AR ([1]; 500.0 nM, HuVEC, ~16 h, Table 8): 85% | percent inhibition of AR ([1]; 500.0 nM, HuVEC, ~16 h, Table 10): 64% | percent inhibition of AR ([1]; 500.0 nM, HuVEC, ~16 h, Table 11): 64% | percent inhibition of AR ([1]; 500.0 nM, HuVEC, ~16 h, Table 12): 38% | percent inhibition of AR ([1]; 500.0 nM, HuVEC, ~16 h, Table 14): 74% | percent inhibition of AR ([1]; 750.0 nM, HuVEC, ~16 h, Table 15): 85% | percent inhibition of AR ([1]; 1000.0 nM, HuVEC, ~16 h, Table 6): 93% | percent inhibition of AR ([1]; 1000.0 nM, HuVEC, ~16 h, Table 8): 90% | percent inhibition of AR ([1]; 1000.0 nM, HuVEC, ~16 h, Table 10): 78% | percent inhibition of AR ([1]; 1000.0 nM, HuVEC, ~16 h, Table 11): 74% | percent inhibition of AR ([1]; 1000.0 nM, HuVEC, ~16 h, Table 12): 71% | percent inhibition of AR ([1]; 1000.0 nM, HuVEC, ~16 h, Table 14): 90% | percent inhibition of AR ([1]; 1500.0 nM, HuVEC, ~16 h, Table 4): 98% | percent inhibition of AR ([1]; 3000.0 nM, HuVEC, ~16 h, Table 15): 96% | IC50 ([1]; HuVEC cells, electroporation): 190 nM | inhibition of AR mRNA at 46.9 nM ([1]; HuVEC cells, electroporation, 46.9 nM ASO): 15% | inhibition of AR mRNA at 187.5 nM ([1]; HuVEC cells, electroporation, 187.5 nM ASO): 50% | inhibition of AR mRNA at 750.0 nM ([1]; HuVEC cells, electroporation, 750.0 nM ASO): 85% | inhibition of AR mRNA at 3000.0 nM ([1]; HuVEC cells, electroporation, 3000.0 nM ASO): 96% | IC50 ([1]; HuVEC, ~16 h, Table 4): 57 nM | IC50 ([1]; HuVEC, ~16 h, Table 6): 100 nM | IC50 ([1]; HuVEC, ~16 h, Table 8): 100 nM | IC50 ([1]; HuVEC, ~16 h, Table 10): 203 nM | IC50 ([1]; HuVEC, ~16 h, Table 11): 324 nM | IC50 ([1]; HuVEC, ~16 h, Table 12): 470 nM | IC50 ([1]; HuVEC, ~16 h, Table 14): 196 nM | IC50 ([1]; HuVEC, ~16 h, Table 15): 190 nM | percent inhibition of AR, 46.9 nM ([1]; Table 29, 46.9 nM, HuVEC, electroporation, approximately 16 hours): 21% | percent inhibition of AR, 187.5 nM ([1]; Table 29, 187.5 nM, HuVEC, electroporation, approximately 16 hours): 72% | percent inhibition of AR, 750.0 nM ([1]; Table 29, 750.0 nM, HuVEC, electroporation, approximately 16 hours): 91% | percent inhibition of AR, 3000.0 nM ([1]; Table 29, 3000.0 nM, HuVEC, electroporation, approximately 16 hours): 97% | IC50 ([1]; Table 29, HuVEC, electroporation, approximately 16 hours): 110 nM | percent inhibition of AR, 46.9 nM ([1]; Table 30, 46.9 nM, HuVEC, electroporation, approximately 16 hours): 22% | percent inhibition of AR, 187.5 nM ([1]; Table 30, 187.5 nM, HuVEC, electroporation, approximately 16 hours): 62% | percent inhibition of AR, 750.0 nM ([1]; Table 30, 750.0 nM, HuVEC, electroporation, approximately 16 hours): 92% | percent inhibition of AR, 3000.0 nM ([1]; Table 30, 3000.0 nM, HuVEC, electroporation, approximately 16 hours): 97% | IC50 ([1]; Table 30, HuVEC, electroporation, approximately 16 hours): 130 nM | percent inhibition of AR, 46.9 nM ([1]; Table 31, 46.9 nM, HuVEC, electroporation, approximately 16 hours): 24% | percent inhibition of AR, 187.5 nM ([1]; Table 31, 187.5 nM, HuVEC, electroporation, approximately 16 hours): 59% | percent inhibition of AR, 750.0 nM ([1]; Table 31, 750.0 nM, HuVEC, electroporation, approximately 16 hours): 92% | percent inhibition of AR, 3000.0 nM ([1]; Table 31, 3000.0 nM, HuVEC, electroporation, approximately 16 hours): 98% | IC50 ([1]; Table 31, HuVEC, electroporation, approximately 16 hours): 130 nM | percent inhibition of AR, 46.9 nM ([1]; Table 32, 46.9 nM, HuVEC, electroporation, approximately 16 hours): 19% | percent inhibition of AR, 187.5 nM ([1]; Table 32, 187.5 nM, HuVEC, electroporation, approximately 16 hours): 58% | percent inhibition of AR, 750.0 nM ([1]; Table 32, 750.0 nM, HuVEC, electroporation, approximately 16 hours): 89% | percent inhibition of AR, 3000.0 nM ([1]; Table 32, 3000.0 nM, HuVEC, electroporation, approximately 16 hours): 96% | IC50 ([1]; Table 32, HuVEC, electroporation, approximately 16 hours): 150 nM | percent inhibition of AR, 46.9 nM ([1]; Table 33, 46.9 nM, HuVEC, electroporation, approximately 16 hours): 21% | percent inhibition of AR, 187.5 nM ([1]; Table 33, 187.5 nM, HuVEC, electroporation, approximately 16 hours): 61% | percent inhibition of AR, 750.0 nM ([1]; Table 33, 750.0 nM, HuVEC, electroporation, approximately 16 hours): 90% | percent inhibition of AR, 3000.0 nM ([1]; Table 33, 3000.0 nM, HuVEC, electroporation, approximately 16 hours): 96% | IC50 ([1]; Table 33, HuVEC, electroporation, approximately 16 hours): 130 nM | percent inhibition of AR, 46.9 nM ([1]; Table 34, 46.9 nM, HuVEC, electroporation, approximately 16 hours): 14% | percent inhibition of AR, 187.5 nM ([1]; Table 34, 187.5 nM, HuVEC, electroporation, approximately 16 hours): 53% | percent inhibition of AR, 750.0 nM ([1]; Table 34, 750.0 nM, HuVEC, electroporation, approximately 16 hours): 84% | percent inhibition of AR, 3000.0 nM ([1]; Table 34, 3000.0 nM, HuVEC, electroporation, approximately 16 hours): 95% | IC50 ([1]; Table 34, HuVEC, electroporation, approximately 16 hours): 180 nM | percent inhibition of AR, 46.9 nM ([1]; Table 35, 46.9 nM, HuVEC, electroporation, approximately 16 hours): 13% | percent inhibition of AR, 187.5 nM ([1]; Table 35, 187.5 nM, HuVEC, electroporation, approximately 16 hours): 49% | percent inhibition of AR, 750.0 nM ([1]; Table 35, 750.0 nM, HuVEC, electroporation, approximately 16 hours): 84% | percent inhibition of AR, 3000.0 nM ([1]; Table 35, 3000.0 nM, HuVEC, electroporation, approximately 16 hours): 91% | IC50 ([1]; Table 35, HuVEC, electroporation, approximately 16 hours): 190 nM | percent inhibition of AR, 46.9 nM ([1]; Table 36, 46.9 nM, HuVEC, electroporation, approximately 16 hours): 1% | percent inhibition of AR, 187.5 nM ([1]; Table 36, 187.5 nM, HuVEC, electroporation, approximately 16 hours): 51% | percent inhibition of AR, 750.0 nM ([1]; Table 36, 750.0 nM, HuVEC, electroporation, approximately 16 hours): 83% | percent inhibition of AR, 3000.0 nM ([1]; Table 36, 3000.0 nM, HuVEC, electroporation, approximately 16 hours): 96% | IC50 ([1]; Table 36, HuVEC, electroporation, approximately 16 hours): 230 nM | Percent inhibition of AR mRNA ([2]; 0.02 μM): 4% | Percent inhibition of AR mRNA ([2]; 0.1 μM): 14% | Percent inhibition of AR mRNA ([2]; 0.5 μM): 67% | Percent inhibition of AR mRNA ([2]; 10 μM): 89%

CNC(=O)c1ccc(N2C(=S)N(c3ccc(C#N)c(C(F)(F)F)c3)C(=O)C2(C)C)cc1F [MDV3100, 4-(3-(4-cyano-3-(trifluoromethyl)phenyl)-5,5-dimethyl-4-oxo-2-thioxoimidazolidin-1-yl)-2-fluoro-N-methylbenzamide, reference compound]
inhibition at 1 µM ([3]; Table 46): 38% | inhibition at 1 µM ([3]; Table 47): 46%
